# In ChEMBL document CHEMBL6182899, “Shooting an Arrow against Convulsion: Novel Triazole-Grafted Benzenesulfonamide Derivatives as Carbonic Anhydrase II and VII Inhibitors” (J Med Chem, 2025):
# Species on record: Mus musculus
# Experiment: animal or person
# Conditions: 24 h
smiles,measurement,value
CCCC(CCC)C(=O)O [VALPROIC ACID],survival at 100 mg/kg,80%
